We go through 44 molecules from patent US20240109905A1, “4-ALKOXY-6-OXO-PYRIDAZINE DERIVATIVES MODULATING NLRP3” (JANSSEN PHARMACEUTICA NV, priority 2021, published 2024).

Each structure is given as a SMILES string. Where two headings read alike, the source gives them in different places. Where only a bound is given, the exact number is not on record here.

The test system of assay [1] is TNF. Put plainly: PBMC assay: TNF cytokine level after LPS stimulation. It counts as cell-based. Particulars: human PBMCs, 30 min compound, 100 ng/ml LPS for 6 hrs, MSD. On the procedure: (§1) Peripheral venous blood was collected from healthy individuals and human peripheral blood mononuclear cells (PBMCs) were isolated from blood by Ficoll-Histopaque (Sigma-Aldrich, A0561) density gradient centrifugation. After isolation, PBMCs were stored in liquid nitrogen for later use. Upon thawing, PBMC cell viability was determined in growth medium (RPMI media supplemented with 10% fetal bovine serum, 1% Pen-Strep and 1% L-glutamine). Compounds were spotted in a 1:3 serial dilution in DMSO and diluted to the final concentration in 30 μl medium in 96 well plates (Falcon, 353072). PBMCs were added at a density of 7.5×10^4 cells per well and incubated for 30 min in a 5% CO2 incubator at 37° C. LPS stimulation was performed by addition of 100 ng/ml LPS (final concentration, Invivogen, tlrl-smlps) for 6 hrs followed by collection of cellular supernatant and the analysis of IL-1β (μM) and TNF cytokines levels (μM) via MSD technology according to manufacturers' guidelines (MSD, K151A0H).
(§2) IC50 and AC50 values (for […]) and EC50 and AC50 values (TNF) were obtained on compounds of the invention/examples, and the AC50 values are depicted in the following table: […]

Assay [2] has as its system IL-1β. Briefly: PBMC assay: IL-1β release after LPS stimulation. The class given is cell-based. Particulars: human PBMCs, 30 min compound, 100 ng/ml LPS for 6 hrs, MSD, read-out: IL1β AC50. On the procedure: The activity of a compound according to the present invention can be assessed by in vitro methods.
as §1, §2

Consider `CC(C)COc1cc(=O)n(CC(=O)NC23CC(C#N)(C2)C3)nc1C(C)C` [Compound 66], for which the AC50 in assay [1] (PBMC) was above 20 µM; in assay [2] (PBMC) it was 0.22 µM.
The corresponding values for `CC(C)COc1cc(=O)n(CC(=O)NC23CCC(C(=O)O)(CC2)CC3)nc1C(C)C` [Compound 67] are above 20 µM and 0.24 µM.
For the molecule `Cc1c(OCC(C)C)c(C(C)C)nn(CC(=O)Nc2ccc3nccn3n2)c1=O` [Compound 68], the AC50 in assay [1] (PBMC) is above 20 µM; in assay [2] (PBMC), 0.24 µM.
Taken in the same sequence, the figures for `CC(C)COc1cc(=O)n(CC(=O)Nc2nc3ccc(F)cn3n2)nc1C(C)C` [Compound 69] were above 20 µM and 0.25 µM.
The corresponding values for `CC(C)COc1cc(=O)n(CC(=O)Nc2ccc3nncn3c2)nc1N(C)C` [Compound 70] are above 20 µM and 0.26 µM.
Taken in the same sequence, the figures for `COC(=O)CC12CC(NC(=O)Cn3nc(C(C)C)c(OCC(C)C)cc3=O)(C1)C2` [Compound 71, methyl 2-(3-(2-(4-isobutoxy-3-isopropyl-6-oxopyridazin-1(6H)-yl)acetamido)bicyclo[1.1.1]pentan-1-yl)acetate] were above 20 µM and 0.26 µM.
In the case of `CC(C)c1nn(CC(=O)Nc2ccc3nncn3n2)c(=O)c(Cl)c1OCC(F)(F)F` [Compound 72], the AC50 was 16.6 µM in assay [1] (PBMC) and 0.27 µM in assay [2] (PBMC).
For `Cc1c(OCC(C)C)c(C(C)C)nn(CC(=O)Nc2ccncc2)c1=O` [Compound 73], the AC50 in assay [1] (PBMC) is above 20 µM; in assay [2] (PBMC) it was 0.33 µM.
The corresponding values for `CC(C)c1nn(CC(=O)Nc2ccc3nncn3c2)c(=O)c(Cl)c1OCC1CC1` [Compound 74] are above 20 µM and 0.36 µM.
As to `CC(C)COc1cc(=O)n(CC(=O)NC23CCC(N)(CC2)C3)nc1C(C)C` [Compound 75, N-((1r,4r)-4-aminobicyclo[2.2.1]heptan-1-yl)-2-(4-isobutoxy-3-isopropyl-6-oxopyridazin-1(6H)-yl)acetamide], the AC50 in assay [1] (PBMC) is above 20 µM; in assay [2] (PBMC), 0.36 µM.
The corresponding values for `CN(C)c1nn(CC(=O)Nc2ccc3nncn3n2)c(=O)cc1OCC1CC1` [Compound 76] are above 20 µM and 0.37 µM.
The corresponding values for `CC(C)COc1cc(=O)n(CC(=O)Nc2nc3ncccn3n2)nc1C(C)C` [Compound 77] are above 20 µM and 0.4 µM.
Regarding `CCCS(=O)(=O)C12CC(NC(=O)Cn3nc(C(C)C)c(OCC(C)C)cc3=O)(C1)C2` [Compound 78, 2-(4-isobutoxy-3-isopropyl-6-oxopyridazin-1(6H)-yl)-N-(3-(propylsulfonyl)bicyclo[1.1.1]pentan-1-yl)acetamide], the AC50 was above 20 µM in assay [1] (PBMC) and 0.42 µM in assay [2] (PBMC).
The corresponding values for `CC(C)COc1cc(=O)n(CC(=O)NC23CC(CO)(C2)C3)nc1C(C)C` [Compound 79] are above 20 µM and 0.43 µM.
As for `COc1ccn2nc(NC(=O)Cn3nc(C(C)C)c(OCC(C)C)cc3=O)nc2c1` [Compound 80], the AC50 in assay [1] was above 20 µM; in assay [2], 0.45 µM.
For `CCN1CC[C@]12C[C@H](NC(=O)Cn1nc(C(C)C)c(OCC(C)C)cc1=O)C2` [Compound 81, N-((4s,6r)-1-ethyl-1-azaspiro[3.3]heptan-6-yl)-2-(4-isobutoxy-3-isopropyl-6-oxopyridazin-1(6H)-yl)acetamide], the AC50 in assay [1] (PBMC) was above 20 µM; in assay [2] (PBMC) it was 0.48 µM.
Taken in the same sequence, the figures for `CC(C)COc1cc(=O)n(CC(=O)NC23CC(O)(C2)C3)nc1C(C)C` [Compound 82] were above 20 µM and 0.5 µM.
The corresponding values for `CC(C)COc1cc(=O)n(CC(=O)NC23CC(C(F)F)(C2)C3)nc1C(C)C` [Compound 83] are above 20 µM and 0.51 µM.
Taken in the same sequence, the figures for `CCCOc1c(C(C)C)nn(CC(=O)Nc2ccc3nncn3c2)c(=O)c1Cl` [Compound 84] were 19.4 µM and 0.63 µM.
Turning to `CC(C)COc1cc(=O)n(CC(=O)NC23CC(C(C)(C)O)(C2)C3)nc1C(C)C` [Compound 85, N-(3-(2-hydroxypropan-2-yl)bicyclo[1.1.1]pentan-1-yl)-2-(4-isobutoxy-3-isopropyl-6-oxopyridazin-1(6H)-yl)acetamide], the AC50 in assay [1] (PBMC) was above 20 µM; in assay [2] (PBMC), 0.65 µM.
The corresponding values for `CC(C)COc1cc(=O)n(CC(=O)NC23CCC(N)(C2)C3)nc1C(C)C` [Compound 86] are above 20 µM and 0.66 µM.
With `CC(C)COc1cc(=O)n(CC(=O)Nc2nc3cc(C(F)(F)F)ccn3n2)nc1C(C)C` [Compound 87], the half-maximal activity concentration (AC50) in assay [1] (PBMC) is above 20 µM; in assay [2] (PBMC), 0.66 µM.
With `CC(C)COc1cc(=O)n(CC(=O)NC23CCC(O)(CC2)CC3)nc1C(C)C` [Compound 88], the results for the half-maximal activity concentration (AC50) in assay [1] (PBMC) and in assay [2] (PBMC) were above 20 µM and 0.66 µM, respectively.
Taken in the same sequence, the figures for `CC(C)COc1cc(=O)n(CC(=O)N[C@H]2C[C@]3(CCN3C)C2)nc1C(C)C` [Compound 89, 2-(4-isobutoxy-3-isopropyl-6-oxopyridazin-1(6H)-yl)-N-((4s,6r)-1-methyl-1-azaspiro[3.3]heptan-6-yl)acetamide] were above 20 µM and 0.67 µM.
The corresponding values for `Cc1noc(C23CC(NC(=O)Cn4nc(C(C)C)c(OCC(C)C)cc4=O)(C2)C3)n1` [Compound 90, 2-(4-isobutoxy-3-isopropyl-6-oxopyridazin-1(6H)-yl)-N-(3-(3-methyl-1,2,4-oxadiazol-5-yl)bicyclo[1.1.1]pentan-1-yl)acetamide] are above 20 µM and 0.68 µM.
The corresponding values for `Cc1ccn2nc(NC(=O)Cn3nc(C(C)C)c(OCC(C)C)cc3=O)nc2c1` [Compound 91] are above 20 µM and 0.69 µM.
In the case of `CC(C)COc1cc(=O)n(CC(=O)NC23CC(C)(C2)C3)nc1C(C)C` [Compound 92], the AC50 was above 20 µM in assay [1] (PBMC) and 0.71 µM in assay [2] (PBMC).
Taken in the same sequence, the figures for `CC(C)c1nn(CC(=O)Nc2ccc3nncn3c2)c(=O)c(Cl)c1OCC(C)(F)F` [Compound 93] were 8.92 µM and 0.77 µM.
With `CC(C)COc1cc(=O)n(CC(=O)NC23CC(N4CCOCC4)(C2)C3)nc1C(C)C` [Compound 94], the results for the concentration at half-maximal activity (AC50) in assay [1] (PBMC) and in assay [2] (PBMC) were above 20 µM and 0.78 µM, respectively.
Taken in the same sequence, the figures for `CN(C)c1nn(CC(=O)Nc2ccc3nncn3n2)c(=O)cc1OCC(F)(F)F` [Compound 95] were 18.2 µM and 0.79 µM.
On to `CC(C)COc1cc(=O)n(CC(=O)NC2(CC(=O)O)CCCC2)nc1C(C)C` [Compound 96], for which the AC50 in assay [1] was above 20 µM; in assay [2], 0.87 µM.
Turning to `CC(C)COc1cc(=O)n(CC(=O)Nc2cn3ccncc3n2)nc1C(C)C` [Compound 97], the half-maximal activity concentration (AC50) in assay [1] (PBMC) came out at 5.01 µM; in assay [2] (PBMC), 0.95 µM.
The corresponding values for `CC(C)COc1cc(=O)n(CC(=O)NC23CC(C4=NN(C)C(=O)C4)(C2)C3)nc1C(C)C` [Compound 98, 2-(4-isobutoxy-3-isopropyl-6-oxopyridazin-1(6H)-yl)-N-(3-(1-methyl-5-oxo-4,5-dihydro-1H-pyrazol-3-yl)bicyclo[1.1.1]pentan-1-yl)acetamide] are above 20 µM and 0.96 µM.
`CC(C)COc1cc(=O)n(CC(=O)NC23CCC(N)(CC2)CC3)nc1C(C)C` [Compound 99]: the AC50 was above 20 µM in assay [1] (PBMC) and 0.97 µM in assay [2] (PBMC).
Taken in the same sequence, the figures for `CC(C)COc1cc(=O)n(CC(=O)Nc2cn3cccnc3n2)nc1C(C)C` [Compound 100] were 4.81 µM and 1 µM.
For `CC(C)COc1cc(=O)n(CC(=O)NC23CC(S(C)(=O)=O)(C2)C3)nc1C(C)C` [Compound 101], the half-maximal activity concentration (AC50) in assay [1] (PBMC) was above 20 µM; in assay [2] (PBMC), 1.02 µM.
Turning to `CC(C)c1nn(CC(=O)Nc2ccc3nncn3n2)c(=O)cc1OCCC(F)(F)F` [Compound 102], the AC50 was above 20 µM in assay [1] (PBMC) and 1.06 µM in assay [2] (PBMC).
Taken in the same sequence, the figures for `CC(C)COc1cc(=O)n(CC(=O)Nc2cc3ncccn3n2)nc1C(C)C` [Compound 103] were above 20 µM and 1.1 µM.
Taken in the same sequence, the figures for `CC(C)COc1cc(=O)n(CC(=O)NC23CCC(C(=O)O)(CC2)C3)nc1C(C)C` [Compound 104] were above 20 µM and 1.12 µM.
Taken in the same sequence, the figures for `CC(C)COc1cc(=O)n(CC(=O)NC23CC(F)(C2)C3)nc1C(C)C` [Compound 105] were above 20 µM and 1.21 µM.
Regarding `CN(C)c1nn(CC(=O)Nc2ccc3nncn3c2)c(=O)cc1OCC(F)(F)F` [Compound 106], the concentration at half-maximal activity (AC50) in assay [1] (PBMC) was above 20 µM; in assay [2] (PBMC), 1.21 µM.
As for `CC(C)COc1cc(=O)n(CC(=O)NC23CC(C(N)C(F)(F)F)(C2)C3)nc1C(C)C` (stereo not shown) [Compound 107], the AC50 in assay [1] (PBMC) is above 20 µM; in assay [2] (PBMC), 1.31 µM.
`CC(C)COc1cc(=O)n(CC(=O)Nc2ccc3nncn3n2)nc1OCC(C)C` [Compound 108]: the half-maximal activity concentration (AC50) in assay [1] (PBMC) is above 20 µM; in assay [2] (PBMC), 1.33 µM.
The corresponding values for `CNC(C(F)(F)F)C12CC(NC(=O)Cn3nc(C(C)C)c(OCC(C)C)cc3=O)(C1)C2` (stereo not shown) [Compound 109] are above 20 µM and 1.35 µM.

Usually AC50 stands for the concentration at which the activity in the assay is half-maximal.
